Measurements: patent US20210030869A1, “DOSING REGIMEN FOR AN IDO INHIBITOR” (Incyte Corporation, priority 2019, published 2021)
Entries after “also recorded” stand apart in the source; their conditions may differ. Where two headings read alike, the source gives them in different places.

Key:
endometrial cancer = settings: cited from earlier work
[1] = Safety and dose-limiting toxicity in Phase 1b dose-finding study (INCMGA 0012-102); type: in vivo; settings: epacadostat 900 mg BID with ANTIBODY X 500 mg Q4W
Text: The study is an open-label, nonrandomized, multicenter, Phase 1b study with independent treatment groups.
For dose escalation, a Bayesian optimal interval (BOIN) design with a cohort size of approximately 3 evaluable participants is used. The target rate of dose-limiting toxicities (DLTs) is assumed to be 30% for each combination. At each dose level, a maximum of 9 participants are enrolled.
Participants in the dose-escalation cohorts are observed for 28 days for occurrence of DLTs.
The MTD is defined as the highest dose at which less than approximately one-third of the participants have a DLT. Dose-limiting toxicities occurring during the first 28 days of treatment guide dose escalation and determination of the MTD and RP2D. In addition, participants with late-onset safety events meeting the definition of DLT or those who had intolerable, lower grade persistent toxicity determined to be attributable to either study drug (e.g., Grade 2 peripheral neuropathy) are considered in the selection of each combination RP2D. […]
A DLT is defined as the occurrence of any of the toxicities listed in Table 4 that are possibly, probably, or definitely due to study treatment occurring from the start of treatment up to and including Day 28. All DLTs will be assessed by the investigator using Common Terminology Criteria for Adverse Events: Version 5 (CTCAE v5) criteria. […]

[2] = tested on: plasma kynurenine levels (IDO1 inhibition)
Experimental: Clinical laboratory tests are performed, including measurement of kynurenine levels in blood plasma and tumor samples.
Plasma kynurenine levels were measured by an LC-MS/MS method at World Wide Clinical Trials, Inc. Patient samples were obtained pre-dose and at defined times following treatment.
Plasma kynurenine was measured pre-treatment (C1D1) and at the indicated visits.

[3] = first line therapy in advanced endometrial cancer
[4] = MSI-H or MMR deficient endometrial cancer progressed on prior therapy

Compound: CC(=O)O[C@H]1C(=O)[C@@]2(C)[C@H]([C@H](OC(=O)c3ccccc3)[C@]3(O)C[C@H](OC(=O)[C@H](O)[C@@H](NC(=O)c4ccccc4)c4ccccc4)C(C)=C1C3(C)C)[C@]1(OC(C)=O)CO[C@@H]1C[C@@H]2O [Paclitaxel]
- RR (response rate) (endometrial cancer; endometrial cancer patients previously treated with combination of cisplatinum and doxorubicin): 25%

Compound: carboplatin and paclitaxel
- ORR (endometrial cancer; [3]): approximately 50%
- OS (endometrial cancer; [3]): 3 years
- PFS (endometrial cancer; [3]): 13 months

Compound: Pembrolizumab: another anti-PD-1 antibody
- ORR for EC (endometrial cancer; [4]): 36%
- duration of response (endometrial cancer; [4]): 4-17 months

Compound: CC(=O)O[C@@]12CO[C@@H]1C[C@H](O)[C@@]1(C)C(=O)[C@H](O)C3=C(C)[C@@H](OC(=O)[C@H](O)[C@@H](NC(=O)OC(C)(C)C)c4ccccc4)C[C@@](O)([C@@H](OC(=O)c4ccccc4)[C@H]21)C3(C)C [docetaxel]
- RR (response rate) (endometrial cancer; endometrial cancer patients treated with paclitaxel in first line therapy): 8%

Compound: NS(=O)(=O)NCCNc1nonc1C(=NO)Nc1ccc(F)c(Br)c1 [epacadostat, 4-({2-[(aminosulfonyl)amino]ethyl}amino)-N-(3-bromo-4-fluorophenyl)-N′-hydroxy-1,2,5-oxadiazole-3-carboximidamide]
- maximum tolerated dose (MTD) assessment [1]: exceeded the MTD
- reductions in plasma kynurenine levels compared to Group 1 ([2]; 600 mg BID epacadostat (Group 2) vs 100 mg BID (Group 1), with ANTIBODY X 500 mg Q4W, day 8 of treatment, solid tumor patients, 3 per group): increased reductions in plasma kynurenine levels
- patients showing sustained reductions in plasma kynurenine ([2]; 600 mg BID epacadostat with ANTIBODY X 500 mg Q4W, after 5 weeks of treatment): 2/3
- decreases in plasma kynurenine over visits (FIG. 1) ([2]; epacadostat 600 mg BID with ANTIBODY X, pre-treatment (C1D1) vs later visits): sustained (up to 4 months) decreases in plasma kyn in most patients; also recorded: sustained (up to 4 months) decreases in plasma kynurenine levels in most patients
- normalization of kynurenine ([2]; epacadostat 600 mg BID with ANTIBODY X, preliminary observations): durable normalization of kynurenine
